Laboratory results published in patent EP0403158A2, “Imidazolyl-alkenoic acids” (SMITHKLINE BEECHAM CORPORATION, priority 1989, dated 1990).

Tests used:
[1] = tested on: pressor response to exogenous angiotensin II; experiment: Inhibition of pressor response to angiotensin II in conscious rats; assay type: in vivo; conditions: Rattus norvegicus, i.v., change in mean arterial pressure after intravenous 250 mg/kg angiotensin II, read-out: IC50 (dose of compound needed to produce 50% inhibition of the control response to angiotensin II)
Description: (§1) Angiotensin II antagonist activity of the compounds of Formulas (I) and (IA) is assessed by in vitro and in vivo methods. In vitro antagonist activity is determined by the ability of the compounds to compete with ¹²⁵I-angiotensin II for binding to vascular angiotensin II receptors and by their ability to antagonize the contractile response to angiotensin II in the isolated rabbit aorta. In vivo activity is evaluated by the efficacy of the compounds to inhibit the pressor response to exogenous angiotensin II in conscious rats and to lower blood pressure in a rat model of renin dependent hypertension.
Rats are prepared with indwelling femoral arterial and venous catheters and a stomach tube (Gellai et al., Kidney Int. 15:419, 1979). Two to three days following surgery the rats are placed in a restrainer and blood pressure is continuously monitored from the arterial catheter with a pressure transducer and recorded on a polygraph. The change in mean arterial pressure in response to intravenous injections of […] angiotensin II is compared at various time points prior to and following the administration of the compounds intravenously or orally at doses of 3 to 300 mg/kg. The dose of compound needed to produce 50% inhibition of the control response to angiotensin II (IC₅₀) is used to estimate the potency of the compounds. […]

[2] = tested on: mean arterial pressure in conscious rats made renin dependent hypertensive; experiment: Antihypertensive activity in renal artery ligated (renin dependent hypertensive) conscious rats; assay type: in vivo; conditions: Rattus norvegicus, iv, seven to eight days following ligation, read-out: IC30 (dose of compound needed to reduce mean arterial pressure by 30 mm Hg)
Description: as §1
The antihypertensive activity of the compounds is measured by their ability to reduce mean arterial pressure in conscious rats made renin dependent hypertensive by ligation of the left renal artery (Cangiano et al., J. Pharmacol. Exp. Ther. 208:310, 1979). Renal artery ligated rats are prepared with indwelling catheters as described above. Seven to eight days following renal artery ligation, the time at which plasma renin levels are highest, the conscious rats are placed in restrainers and mean arterial pressure is continuously recorded prior to and following the administration of the compounds intravenously or orally. The dose of compound needed to reduce mean arterial pressure by 30 mm Hg (IC₃₀) is used as an estimate of potency. […]

Compound: CCCCc1ncc(/C=C(\Cc2ccccc2)C(=O)O)n1Cc1ccccc1Cl [(E)-3-[2-n-butyl-1-{(2-chlorophenyl)methyl}-1H-imidazol-5-yl]-2-benzyl-2-propenoic acid]
- ED50 [1]: 14 mg/kg
- ED (30 mm Hg) [2]: 10 mg/kg
